≈ marks a conversion by molar mass, not a printed value.
Legend:
[1] = Stability in dog plasma; assay type: in vitro ADME
[2] = Stability in liver microsome, overall conclusion (species not stated); assay type: in vitro ADME; details: conclusion in words
[3] = Stability in mouse liver microsome; assay type: in vitro ADME; details: 2 μM, 37° C., 30 minutes
[4] = Stability in human plasma
Excerpt: (§1) Experimental instruments: thermostatic shaker (SHA-B, Guohua Electric Appliance Co., Ltd.); centrifuge (5810R, Eppendorf); mass spectrometry (AP4000, Applied Biosystems, USA); liquid chromatography (LC-30AD, Shimadzu); sample injector (CTC Analytics AG System, CTC).
(§2) Test animals: plasma of human (batch number: BRH1343165), rat (batch number: RAT336728), mouse (batch number: MSE280000), dog (batch number: BGL99137) and monkey (batch number: PH-Monkey-20180821) are purchased from Shanghai Sixin Biological Technology Co., Ltd.
(§3) Experimental process: the compound of the present invention was dissolved in an organic solvent to obtain a 1 mM working solution. 3 μL of the working solution were added to 597 μL of pre-incubated human or rat plasma and mixed well. 50 μL of the solution were immediately taken out as the 0 minute sample. The remaining sample was incubated at 37° C., and 50 μL of sample were taken out at 15, 30, 60 and 120 minutes respectively. All the samples taken out were immediately processed to precipitate protein, and centrifuged to obtain a supermate for the determination of the compound concentration by LC/MS/MS.

[5] = Stability in rat plasma
Excerpt: as §1, §2, §3

[6] = Determination of water solubility in phosphate buffer; assay type: physicochemical; details: for solubility at 24 h: aqueous buffer, thermodynamic from solid, phosphate buffer pH 7.4, room temperature
How it was run: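 2 mg solid compound shaken in 500 μL phosphate buffer (pH 1.2, 4.5, 6.8 or 7.4) in a sealed flask, room temperature, 24 h. Suspension vacuum-filtered; dissolved concentration in filtrate quantified by LC/MS/MS.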

[7] = Stability in human liver microsome; details: 2 μM, 37° C., 30 minutes
Description: (§4) Experimental instruments: thermostatic shaker (SHA-B, Guohua Electric Appliance Co., Ltd.); centrifuge (5810R, Eppendorf); mass spectrometry (API4000, Applied Biosystems, USA); liquid chromatography (LC-30AD, Shimadzu); sample injector (CTC Analytics AG System, CTC).
(§5) Experimental process: 25 μg/mL alamethicin (Aldrich), 5 mM magnesium chloride and 0.5 mg/mL microsome (XENOTECH) were added to 100 mM phosphate buffer to obtain a coenzyme-free reaction solution. A portion of the coenzyme-free reaction solution was added with 1 mM reductive nicotinamide adenine dinucleotide phosphate (Aldrich) and 5 mM uridine diphosphate glucuronic acid (Aldrich) to obtain a coenzyme-containing reaction solution. The working solution of the compound of the present invention was added to the two reaction solutions so that the final concentration of the compound was 2 μM. Immediately after mixing well, 50 μL of the solution were taken out as the 0 minute sample, and 50 μL of the remaining sample were taken out after incubating at 37° C. for 30 minutes. All the samples taken out were immediately processed to precipitate protein, and centrifuged to obtain a supernate for the determination of the compound concentration by LC/MS/MS.

[8] = Stability in rat liver microsome; details: 2 μM, 37° C., 30 minutes
Description: as §4, §5

[9] = Stability in plasma, overall conclusion (species not stated); details: conclusion in words
[10] = Stability in mouse plasma; assay type: in vitro ADME
Excerpt: as §1, §2, §3

[11] = Stability in monkey plasma; assay type: in vitro ADME
Excerpt: as §1, §2, §3

[12] = Stability in dog liver microsome; details: 2 μM, 37° C., 30 minutes

Structure (SMILES)	Percentage of the compound remaining in plasma ([1]; 0 minute)	Percentage of the compound remaining in plasma ([1]; 37° C., 15 minutes)	Percentage of the compound remaining in plasma ([1]; 37° C., 30 minutes)	Percentage of the compound remaining in plasma ([1]; 37° C., 60 minutes)	Percentage of the compound remaining in plasma ([1]; 37° C., 120 minutes)	stability in microsome [2]	Percentage of the compound remaining in mouse liver microsome ([3]; with coenzyme)	Percentage of the compound remaining in mouse liver microsome ([3]; without coenzyme)	Percentage of the compound remaining in plasma ([4]; 0 minute)	Percentage of the compound remaining in plasma ([4]; 37° C., 15 minutes)	Percentage of the compound remaining in plasma ([4]; 37° C., 30 minutes)	Percentage of the compound remaining in plasma ([4]; 37° C., 60 minutes)	solubility at 24 h [6]	Percentage of the compound remaining in human liver microsome ([7]; with coenzyme)	Percentage of the compound remaining in human liver microsome ([7]; without coenzyme)	Percentage of the compound remaining in rat liver microsome ([8]; with coenzyme)	Percentage of the compound remaining in rat liver microsome ([8]; without coenzyme)	stability in plasma [9]	Percentage of the compound remaining in dog liver microsome ([12]; with coenzyme)	Percentage of the compound remaining in dog liver microsome ([12]; without coenzyme)	also measured
CN1CCN(C(=O)OCOc2ccc([N+](=O)[O-])c3cccnc23)CC1 [Compound 6, (5-nitroquinolin-8-yloxy)methyl 4-methylpiperazine-1-carboxylate]	100.0%	111.5%	111.9%	114.6%	105.9%	high stability	51.08%	116.52%	100.0%	97.5%	106.0%	95.0%	985 µg/mL (≈ 2840 µM)	109.46%	118.37%	75.71%	99.73%	high stability	38.76%	114.53%	Percentage of the compound remaining in plasma ([4]; 37° C., 120 minutes): 99.3%; Percentage of the compound remaining in plasma ([5]; 0 minute): 100.0%; Percentage of the compound remaining in plasma ([5]; 37° C., 15 minutes): 95.5%; Percentage of the compound remaining in plasma ([5]; 37° C., 30 minutes): 98.8%; Percentage of the compound remaining in plasma ([5]; 37° C., 60 minutes): 90.2%; Percentage of the compound remaining in plasma ([5]; 37° C., 120 minutes): 89.4%; Percentage of the compound remaining in plasma ([10]; 0 minute): 100.0%; Percentage of the compound remaining in plasma ([10]; 37° C., 15 minutes): 97.7%; Percentage of the compound remaining in plasma ([10]; 37° C., 30 minutes): 95.4%; Percentage of the compound remaining in plasma ([10]; 37° C., 60 minutes): 98.9%; Percentage of the compound remaining in plasma ([10]; 37° C., 120 minutes): 92.1%; Percentage of the compound remaining in plasma ([11]; 0 minute): 100.0%; Percentage of the compound remaining in plasma ([11]; 37° C., 15 minutes): 98.3%; Percentage of the compound remaining in plasma ([11]; 37° C., 30 minutes): 101.1%; Percentage of the compound remaining in plasma ([11]; 37° C., 60 minutes): 91.6%; Percentage of the compound remaining in plasma ([11]; 37° C., 120 minutes): 98.9%
O=C(OCOc1ccc([N+](=O)[O-])c2cccnc12)N1CCOCC1 [Compound 7, (5-nitroquinolin-8-yloxy)methyl morpholine-4-carboxylate]	100.0%	104.0%	107.2%	106.5%	101.8%	high stability	55.15%	82.50%	100.0%	93.5%	97.8%	99.6%	134 µg/mL (≈ 403 µM)	91.44%	96.71%	69.51%	90.84%	high stability	28.07%	83.78%	Percentage of the compound remaining in plasma ([4]; 37° C., 120 minutes): 105.2%; Percentage of the compound remaining in plasma ([5]; 0 minute): 100.0%; Percentage of the compound remaining in plasma ([5]; 37° C., 15 minutes): 94.0%; Percentage of the compound remaining in plasma ([5]; 37° C., 30 minutes): 98.6%; Percentage of the compound remaining in plasma ([5]; 37° C., 60 minutes): 95.0%; Percentage of the compound remaining in plasma ([5]; 37° C., 120 minutes): 91.6%; Percentage of the compound remaining in plasma ([10]; 0 minute): 100.0%; Percentage of the compound remaining in plasma ([10]; 37° C., 15 minutes): 98.5%; Percentage of the compound remaining in plasma ([10]; 37° C., 30 minutes): 98.8%; Percentage of the compound remaining in plasma ([10]; 37° C., 60 minutes): 96.1%; Percentage of the compound remaining in plasma ([10]; 37° C., 120 minutes): 89.3%; Percentage of the compound remaining in plasma ([11]; 0 minute): 100.0%; Percentage of the compound remaining in plasma ([11]; 37° C., 15 minutes): 96.5%; Percentage of the compound remaining in plasma ([11]; 37° C., 30 minutes): 105.9%; Percentage of the compound remaining in plasma ([11]; 37° C., 60 minutes): 99.0%; Percentage of the compound remaining in plasma ([11]; 37° C., 120 minutes): 98.7%
CN(CC(O)CO)C(=O)OCOc1ccc([N+](=O)[O-])c2cccnc12 (centres unmarked) [Compound 52, (5-nitroquinolin-8-yloxy)methyl 2,3-dihydroxypropyl(methyl)carbamate]						high stability	95.16%	105.69%	100.0%	95.6%	94.1%	89.2%	687 µg/mL (≈ 1960 µM)	102.24%	108.46%	101.34%	99.39%	high stability	85.67%	91.82%	Percentage of the compound remaining in plasma ([4]; 37° C., 120 minutes): 83.3%; Percentage of the compound remaining in plasma ([5]; 0 minute): 100.0%; Percentage of the compound remaining in plasma ([5]; 37° C., 15 minutes): 102.5%; Percentage of the compound remaining in plasma ([5]; 37° C., 30 minutes): 90.1%; Percentage of the compound remaining in plasma ([5]; 37° C., 60 minutes): 84.6%; Percentage of the compound remaining in plasma ([5]; 37° C., 120 minutes): 71.3%; water solubility compared with nitroxoline ([6]; conclusion in words): increased by several times
COC(=O)CNC(=O)OCOc1ccc([N+](=O)[O-])c2cccnc12 [Compound 53, methyl 2-(((5-nitroquinolin-8-yloxy)methoxy)formamido)acetate]	100.0%	96.3%	92.3%	78.6%	67.3%	high stability	32.13%	55.80%					45.5 µg/mL (≈ 136 µM)	79.98%	84.61%	54.58%	54.77%	high stability	70.38%	82.59%	

From patent publication US12152048B2, “Nitroxoline prodrug and use thereof” (Jiangsu Yahong Meditech Co., Ltd., priority 2018, dated 2024)
